Reference: PMC11762167, “G Protein-Coupled Receptor 17 Inhibits Glucagon-like Peptide-1 Secretion via a Gi/o-Dependent Mechanism in Enteroendocrine Cells” (Biomolecules, 2024)

Key:
GLUTag cells = assay: Endpoint cAMP (HTRF) in control-transduced GLUTag cells; type: cell-based, murine; parameters: Mean Diff. of cAMP, MDL29,951 vs FSK alone (Tukey): unit not given here; settings: for Mean Diff. of cAMP, MDL29,951 vs FSK alone (Tukey): Ctl
Description: (§1) GLUTag cells were maintained in Dulbecco’s Modified Eagle Medium (DMEM) supplemented with 10% fetal bovine serum and 1% penicillin–streptomycin in a humidified incubator at 37 °C and 5% CO2. For adenovirus transduction, GLUTag cells were seeded into poly-D-lysine coated 96-well plates or 4-chamber slides. The next day, cells were transduced with adenoviruses (100–1250 viral particles per cell at time of seeding) as indicated. After 24–30 h, adenovirus-containing media was changed to serum-free growth media for overnight serum starvation. The following day, GLUTag cells were used for cAMP or calcium signaling assays, GLP-1 secretion assays, or immunostaining and imaging.
(§2) Endpoint cAMP measurements were conducted as follows. GLUTag cells were seeded into poly-D-lysine-coated 96-well plates and transduced with adenovirus as specified above and then tested for cAMP signaling. Medium was removed and cells were washed with cAMP stimulation buffer (Hanks’ balanced salt solution (HBSS), 20 mM HEPES, pH 7.4) and then incubated in cAMP stimulation buffer for 30 min at 37 °C and 5% CO2. Cells were then treated for 30 min with agonist and forskolin in the presence of 500 µM IBMX at 37 °C and 5% CO2. Stimulation buffer was then decanted, and cAMP lysis buffer (50 mM HEPES, 10 mM CaCl2, 0.35% Triton X-100, and 500 µM IBMX) was added and shaken at 700 rpm for 1 h. Lysate was transferred to a 384-well plate, and the cAMP levels were quantified using the Cisbio HTRF cAMP (Gi kit; Revvity, Waltham, MA, USA) according to the manufacturer’s protocol.

hGPR17L-V96M = biological target: T1, hGPR17L-V96M (Homo sapiens, UniProt Q13304, V96M); assay: Endpoint cAMP in GLUTag cells expressing hGPR17L-V96M; type: cell-based
T1 construct: host or cells: GLUTag cells, adenoviral transduction
T1 sequence (Q13304 whole entry V96M): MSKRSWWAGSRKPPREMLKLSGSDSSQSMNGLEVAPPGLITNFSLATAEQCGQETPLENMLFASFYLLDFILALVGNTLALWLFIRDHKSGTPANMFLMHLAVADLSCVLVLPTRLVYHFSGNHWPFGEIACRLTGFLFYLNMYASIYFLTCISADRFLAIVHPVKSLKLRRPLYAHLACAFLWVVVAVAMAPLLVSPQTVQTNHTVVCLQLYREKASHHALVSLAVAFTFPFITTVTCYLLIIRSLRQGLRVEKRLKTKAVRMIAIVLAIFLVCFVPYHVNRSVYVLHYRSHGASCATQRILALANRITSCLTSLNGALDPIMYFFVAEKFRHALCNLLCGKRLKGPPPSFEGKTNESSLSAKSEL
Description: as §1, §2

hGPR17L [1] = biological target: T2, hGPR17L (Homo sapiens, UniProt Q13304); assay: Calcium mobilization in HEK293 cells transfected with hGPR17L; type: cell-based
T2 sequence (Q13304 whole entry): as the sequence (Q13304 whole entry V96M) above, with M96V counted along it
Description: HEK293 cells were maintained and transfected as previously described.
Calcium flux in HEK293 cells was measured as previously described.

hGPR17L [2] = biological target: T2, hGPR17L; assay: Endpoint cAMP (HTRF) in GLUTag cells expressing hGPR17L; type: cell-based; parameters: host or cells: GLUTag cells (murine enteroendocrine line), adenoviral transduction; settings: for Predicted (LS) mean diff.: Fig 2B, Forskolin
Description: as §1, §2

[3] = 10 µM forskolin, GLUTag hGPR17L

O=C(O)CCc1c(C(=O)O)[nH]c2cc(Cl)cc(Cl)c12 [MDL29,951]
effect on PGE2-stimulated cAMP levels (GLUTag cells; 300 nM PGE2, control transduction condition): no effect
effect on cAMP levels upon PMA treatment (GLUTag cells; 300 nM PMA, control-transduced cells): no effect
Mean Diff. of cAMP, MDL29,951 vs FSK alone (Tukey) (GLUTag cells; log [MDL29,951] (M) -4.0): 0.00975
Mean Diff. of cAMP, MDL29,951 vs FSK alone (Tukey) (GLUTag cells; log [MDL29,951] (M) -4.6): 0.066
Mean Diff. of cAMP, MDL29,951 vs FSK alone (Tukey) (GLUTag cells; log [MDL29,951] (M) -5.2): 0.1185
Mean Diff. of cAMP, MDL29,951 vs FSK alone (Tukey) (GLUTag cells; log [MDL29,951] (M) -5.8): 0.114
Mean Diff. of cAMP, MDL29,951 vs FSK alone (Tukey) (GLUTag cells; log [MDL29,951] (M) -6.4): 0.183
Mean Diff. of cAMP, MDL29,951 vs FSK alone (Tukey) (GLUTag cells; log [MDL29,951] (M) -7.0): 0.173
Mean Diff. of cAMP, MDL29,951 vs FSK alone (Tukey) (GLUTag cells; log [MDL29,951] (M) -7.6): 0.2335
Mean Diff. of cAMP, MDL29,951 vs FSK alone (Tukey) (GLUTag cells; log [MDL29,951] (M) -8.2): 0.2168
Mean Diff. of cAMP, MDL29,951 vs FSK alone (Tukey) (GLUTag cells; log [MDL29,951] (M) -8.8): 0.0115
Mean Diff. of cAMP, MDL29,951 vs FSK alone (Tukey) (GLUTag cells; log [MDL29,951] (M) -9.4): -0.09325
effect on forskolin-stimulated cAMP (GLUTag cells; control-transduced cells, 10 µM forskolin): no effect
effect on forskolin-stimulated cAMP (hGPR17L-V96M; 10 µM forskolin, GLUTag hGPR17L-V96M): no significant effect
Mean Diff. (Tukey's multiple comparisons test), cAMP, Row 10 vs. Row 11 (hGPR17L-V96M; hGPR17L-V96M (200), log [MDL29,951] (M) -4.0 vs. Vehicle, Forskolin stimulation, Figure 4B): -6.053
Mean Diff. (Tukey's multiple comparisons test), cAMP, Row 9 vs. Row 11 (hGPR17L-V96M; hGPR17L-V96M (200), log [MDL29,951] (M) -4.6 vs. Vehicle, Forskolin stimulation, Figure 4B): -5.593
Mean Diff. (Tukey's multiple comparisons test), cAMP, Row 8 vs. Row 11 (hGPR17L-V96M; hGPR17L-V96M (200), log [MDL29,951] (M) -5.2 vs. Vehicle, Forskolin stimulation, Figure 4B): -7.097
Mean Diff. (Tukey's multiple comparisons test), cAMP, Row 7 vs. Row 11 (hGPR17L-V96M; hGPR17L-V96M (200), log [MDL29,951] (M) -5.8 vs. Vehicle, Forskolin stimulation, Figure 4B): -12.44
Mean Diff. (Tukey's multiple comparisons test), cAMP, Row 6 vs. Row 11 (hGPR17L-V96M; hGPR17L-V96M (200), log [MDL29,951] (M) -6.4 vs. Vehicle, Forskolin stimulation, Figure 4B): -8.68
Mean Diff. (Tukey's multiple comparisons test), cAMP, Row 5 vs. Row 11 (hGPR17L-V96M; hGPR17L-V96M (200), log [MDL29,951] (M) -7.0 vs. Vehicle, Forskolin stimulation, Figure 4B): -6.907
Mean Diff. (Tukey's multiple comparisons test), cAMP, Row 4 vs. Row 11 (hGPR17L-V96M; hGPR17L-V96M (200), log [MDL29,951] (M) -7.6 vs. Vehicle, Forskolin stimulation, Figure 4B): -4.737
Mean Diff. (Tukey's multiple comparisons test), cAMP, Row 3 vs. Row 11 (hGPR17L-V96M; hGPR17L-V96M (200), log [MDL29,951] (M) -8.2 vs. Vehicle, Forskolin stimulation, Figure 4B): -3.133
Mean Diff. (Tukey's multiple comparisons test), cAMP, Row 2 vs. Row 11 (hGPR17L-V96M; hGPR17L-V96M (200), log [MDL29,951] (M) -8.8 vs. Vehicle, Forskolin stimulation, Figure 4B): 3.127
Mean Diff. (Tukey's multiple comparisons test), cAMP, Row 1 vs. Row 11 (hGPR17L-V96M; hGPR17L-V96M (200), log [MDL29,951] (M) -9.4 vs. Vehicle, Forskolin stimulation, Figure 4B): -1.35
Calcium Emax (Mean Peak ΔF/F) (hGPR17L [1]): 1.92±0.22
Calcium Potency (pEC50) (hGPR17L [1]): 7.29±0.11
EC50 (hGPR17L [1]; read-out: Calcium Potency EC50): 51 nM
effect on forskolin-stimulated cAMP upon treatment with Gq inhibitor YM-254890 (hGPR17L [2]; 100 nM YM-254890, 10 µM forskolin): inhibited
inhibition of forskolin-stimulated cAMP in the presence of PTX (hGPR17L [2]; 100 ng/mL PTX, 10 µM forskolin): unable to inhibit
IC50 (hGPR17L [2]; 10 µM forskolin, 500 µM IBMX, GLUTag hGPR17L, read-out: IC50, inhibition of forskolin-stimulated cAMP): 29 nM
pEC50, reversal of inhibition of forskolin-stimulated cAMP (hGPR17L [2]; [3]): 4.94 ± 0.09
pIC50, inhibition of forskolin-stimulated cAMP (hGPR17L [2]; [3]): 7.54 ± 0.11
EC50 (hGPR17L [2]; 10 µM forskolin, GLUTag hGPR17L, read-out: EC50, reversal of inhibition of forskolin-stimulated cAMP at higher concentrations): 12000 nM
Predicted (LS) mean diff. (hGPR17L [2]; log [MDL29,951] (M) -4.0 vs. Vehicle, +100 nM YM-254890): -29.51
Predicted (LS) mean diff. (hGPR17L [2]; log [MDL29,951] (M) -4.0 vs. Vehicle, +100 ng/mL PTX): 28.26
Predicted (LS) mean diff. (hGPR17L [2]; log [MDL29,951] (M) -4.0 vs. Vehicle, +Vehicle): -12.1
Predicted (LS) mean diff. (hGPR17L [2]; log [MDL29,951] (M) -4.6 vs. Vehicle, +100 nM YM-254890): -35.09
Predicted (LS) mean diff. (hGPR17L [2]; log [MDL29,951] (M) -4.6 vs. Vehicle, +100 ng/mL PTX): 20.2
Predicted (LS) mean diff. (hGPR17L [2]; log [MDL29,951] (M) -4.6 vs. Vehicle, +Vehicle): -15.6
Predicted (LS) mean diff. (hGPR17L [2]; log [MDL29,951] (M) -5.2 vs. Vehicle, +100 nM YM-254890): -39.39
Predicted (LS) mean diff. (hGPR17L [2]; log [MDL29,951] (M) -5.2 vs. Vehicle, +100 ng/mL PTX): 8.85
Predicted (LS) mean diff. (hGPR17L [2]; log [MDL29,951] (M) -5.2 vs. Vehicle, +Vehicle): -22.36
